Experimental data published in article PMC3433420 (PLoS ONE, 2012).
Residues, ends and D or L forms follow the SMILES beside them.

Columns and labels:
Assay in all cases: In-house protein microarrays (with or without 5 mM DTT), protein named per line
Assay type in all cases: binding
[1] = biological target: T1, SH2 and PTB domains (Homo sapiens, UniProt P00519); details: protein ABL1
T1 construct: thioredoxin; made in house; host or cells: BL21(DE3)pLysS E. coli
Procedure, shortened: (§1)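 KD values come from rhodamine fluorescence of duplicate spots after subtraction of a thioredoxin control. Domains were printed at ~40 µM on aldehyde slides, blocked 1 h at room temperature in pH 7.8 HEPES/KCl buffer with 5 mM DTT and 1% BSA, then peptide-probed.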

[2] = biological target: T2, SH2 and PTB domains (Homo sapiens, UniProt P19174)
T2 construct: thioredoxin; made in house; host or cells: BL21(DE3)pLysS E. coli
T2 sequence (P19174 1-1290): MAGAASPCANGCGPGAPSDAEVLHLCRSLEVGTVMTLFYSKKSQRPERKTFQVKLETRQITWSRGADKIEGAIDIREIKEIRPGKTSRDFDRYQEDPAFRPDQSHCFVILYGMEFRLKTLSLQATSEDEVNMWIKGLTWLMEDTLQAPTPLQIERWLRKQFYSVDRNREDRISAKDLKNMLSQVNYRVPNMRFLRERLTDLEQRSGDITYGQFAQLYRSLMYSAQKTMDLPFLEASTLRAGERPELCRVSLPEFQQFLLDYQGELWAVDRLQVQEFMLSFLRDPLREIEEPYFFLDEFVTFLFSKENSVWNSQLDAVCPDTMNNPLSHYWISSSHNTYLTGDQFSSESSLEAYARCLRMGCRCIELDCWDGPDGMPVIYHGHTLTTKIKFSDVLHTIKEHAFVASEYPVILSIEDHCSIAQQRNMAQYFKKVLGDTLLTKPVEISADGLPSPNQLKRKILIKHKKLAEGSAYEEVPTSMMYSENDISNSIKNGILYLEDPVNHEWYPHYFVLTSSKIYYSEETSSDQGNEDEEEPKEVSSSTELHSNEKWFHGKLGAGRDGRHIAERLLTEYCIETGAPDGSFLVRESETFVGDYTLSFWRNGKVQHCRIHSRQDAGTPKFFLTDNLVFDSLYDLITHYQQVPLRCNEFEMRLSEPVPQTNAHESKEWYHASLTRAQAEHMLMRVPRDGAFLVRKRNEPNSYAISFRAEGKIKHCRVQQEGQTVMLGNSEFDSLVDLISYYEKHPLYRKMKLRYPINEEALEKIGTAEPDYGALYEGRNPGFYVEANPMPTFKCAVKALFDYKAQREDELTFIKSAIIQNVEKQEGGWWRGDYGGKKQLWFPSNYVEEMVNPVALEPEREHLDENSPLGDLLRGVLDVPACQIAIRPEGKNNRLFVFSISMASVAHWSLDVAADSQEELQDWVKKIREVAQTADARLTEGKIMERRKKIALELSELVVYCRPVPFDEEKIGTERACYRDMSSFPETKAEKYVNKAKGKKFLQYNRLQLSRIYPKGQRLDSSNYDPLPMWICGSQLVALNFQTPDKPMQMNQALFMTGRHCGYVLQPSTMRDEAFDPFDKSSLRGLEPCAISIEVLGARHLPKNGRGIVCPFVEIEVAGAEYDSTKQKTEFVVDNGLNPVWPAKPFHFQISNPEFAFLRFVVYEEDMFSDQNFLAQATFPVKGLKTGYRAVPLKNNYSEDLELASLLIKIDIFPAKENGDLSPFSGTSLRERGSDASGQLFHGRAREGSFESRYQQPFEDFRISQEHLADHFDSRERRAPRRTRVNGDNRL
Procedure, shortened: as §1

[3] = biological target: T3, SH2 and PTB domains (Homo sapiens, UniProt P51813); details: protein BMX
T3 construct: thioredoxin; made in house; host or cells: BL21(DE3)pLysS E. coli
T3 sequence (P51813 1-675): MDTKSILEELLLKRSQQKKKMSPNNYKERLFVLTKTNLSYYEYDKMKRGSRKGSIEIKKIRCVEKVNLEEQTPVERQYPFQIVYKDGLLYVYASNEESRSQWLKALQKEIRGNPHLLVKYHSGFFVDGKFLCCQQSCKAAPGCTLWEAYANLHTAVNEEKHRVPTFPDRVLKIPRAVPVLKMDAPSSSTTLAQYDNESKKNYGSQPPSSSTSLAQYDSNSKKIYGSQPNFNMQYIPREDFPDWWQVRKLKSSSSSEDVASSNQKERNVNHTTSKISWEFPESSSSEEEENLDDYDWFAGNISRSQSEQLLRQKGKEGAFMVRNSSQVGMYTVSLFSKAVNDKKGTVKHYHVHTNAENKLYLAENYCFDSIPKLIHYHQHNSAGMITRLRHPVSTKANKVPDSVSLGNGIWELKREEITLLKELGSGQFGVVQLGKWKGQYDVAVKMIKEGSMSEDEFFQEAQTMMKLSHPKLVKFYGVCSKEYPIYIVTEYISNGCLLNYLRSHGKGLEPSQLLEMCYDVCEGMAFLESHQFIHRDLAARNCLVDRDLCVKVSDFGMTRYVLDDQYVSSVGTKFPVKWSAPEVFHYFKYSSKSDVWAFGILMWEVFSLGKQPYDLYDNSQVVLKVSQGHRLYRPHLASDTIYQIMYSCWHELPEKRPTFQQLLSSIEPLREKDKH
Procedure, shortened: as §1

[4] = biological target: T4, SH2 and PTB domains (Homo sapiens, UniProt Q7M4L6); details: protein SHF
T4 construct: thioredoxin; made in house; host or cells: BL21(DE3)pLysS E. coli
Procedure, shortened: as §1

[5] = PM assay replicate # 39336, array fabrication # 39329
[6] = PM assay replicate # 39337, array fabrication # 39329
[7] = PM assay replicate # 39307, array fabrication # 39286

T1 sequence (P00519 whole entry, the tested form may be a part): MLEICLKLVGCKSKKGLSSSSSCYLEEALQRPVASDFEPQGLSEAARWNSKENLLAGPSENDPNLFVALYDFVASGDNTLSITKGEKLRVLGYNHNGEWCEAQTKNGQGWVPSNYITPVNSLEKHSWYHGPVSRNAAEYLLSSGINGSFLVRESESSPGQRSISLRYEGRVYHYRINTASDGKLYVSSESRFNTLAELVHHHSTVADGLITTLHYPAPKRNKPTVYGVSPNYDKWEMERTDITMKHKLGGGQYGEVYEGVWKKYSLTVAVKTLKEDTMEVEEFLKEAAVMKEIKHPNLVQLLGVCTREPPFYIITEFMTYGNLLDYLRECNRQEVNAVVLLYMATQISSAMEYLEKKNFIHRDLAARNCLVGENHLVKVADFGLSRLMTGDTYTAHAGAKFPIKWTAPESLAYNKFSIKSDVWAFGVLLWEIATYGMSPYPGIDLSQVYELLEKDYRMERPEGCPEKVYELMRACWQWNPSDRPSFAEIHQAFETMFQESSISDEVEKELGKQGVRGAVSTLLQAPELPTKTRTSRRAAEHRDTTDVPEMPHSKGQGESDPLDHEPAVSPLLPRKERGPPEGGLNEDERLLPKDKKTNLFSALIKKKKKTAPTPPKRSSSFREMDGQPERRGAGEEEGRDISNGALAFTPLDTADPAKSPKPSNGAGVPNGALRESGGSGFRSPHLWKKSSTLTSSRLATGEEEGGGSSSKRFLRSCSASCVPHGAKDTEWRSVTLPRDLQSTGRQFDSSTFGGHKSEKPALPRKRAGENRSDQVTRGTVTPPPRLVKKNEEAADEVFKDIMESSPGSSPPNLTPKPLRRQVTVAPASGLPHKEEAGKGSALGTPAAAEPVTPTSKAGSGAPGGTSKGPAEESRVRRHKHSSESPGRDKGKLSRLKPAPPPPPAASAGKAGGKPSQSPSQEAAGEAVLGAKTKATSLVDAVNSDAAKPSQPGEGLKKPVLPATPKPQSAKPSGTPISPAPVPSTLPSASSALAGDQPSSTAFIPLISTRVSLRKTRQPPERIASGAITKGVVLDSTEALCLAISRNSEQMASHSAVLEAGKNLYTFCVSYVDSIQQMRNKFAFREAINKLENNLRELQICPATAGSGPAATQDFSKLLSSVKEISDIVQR
T4 sequence (Q7M4L6 whole entry, the tested form may be a part): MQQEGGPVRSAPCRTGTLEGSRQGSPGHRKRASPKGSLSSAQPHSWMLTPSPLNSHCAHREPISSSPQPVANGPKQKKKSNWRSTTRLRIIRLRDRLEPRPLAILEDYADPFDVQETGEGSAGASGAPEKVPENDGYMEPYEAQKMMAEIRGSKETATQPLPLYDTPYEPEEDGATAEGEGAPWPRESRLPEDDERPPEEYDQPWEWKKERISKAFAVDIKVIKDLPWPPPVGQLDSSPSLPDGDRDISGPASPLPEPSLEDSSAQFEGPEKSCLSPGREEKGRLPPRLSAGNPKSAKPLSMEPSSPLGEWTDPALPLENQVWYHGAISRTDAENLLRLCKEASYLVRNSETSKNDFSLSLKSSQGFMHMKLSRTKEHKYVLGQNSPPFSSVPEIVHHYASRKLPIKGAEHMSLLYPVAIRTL

Structure (SMILES): CC(C)C[C@H](NC(=O)[C@@H]1CCCN1C(=O)[C@H](C)NC(=O)[C@@H](NC(=O)[C@H](Cc1ccc(OP(=O)(O)O)cc1)NC(=O)CNC(=O)[C@H](CC(=O)O)NC(=O)[C@@H](NC(=O)[C@@H](N)CCC(=O)O)[C@@H](C)O)C(C)C)C(=O)N[C@H](C(=O)N[C@@H](CS)C(=O)N[C@@H](CO)C(=O)N[C@@H](CC(=O)O)C(=O)O)[C@@H](C)O [ErbB2 pY1127]
- Kd [1, 5]: 300 nM
- Kd [1, 6]: 530 nM
- Kd ([2]; protein PLCG1-C, PM assay replicate # 39336, array fabrication # 39329): 4090 nM
- Kd ([2]; protein PLCG1-C, PM assay replicate # 39337, array fabrication # 39329): 110 nM
- Kd ([2]; protein PLCG1-NC, PM assay replicate # 39336, array fabrication # 39329): 8820 nM
- Kd ([2]; protein PLCG1-NC, PM assay replicate # 39337, array fabrication # 39329): 1920 nM
- Kd [3, 5]: 1600 nM
- Kd [3, 6]: 5390 nM

Structure (SMILES): CCN(CC)c1ccc2c(-c3ccc(C(=O)N[C@@H](CC(N)=O)C(=O)NCC(=O)N4CCC[C@H]4C(=O)N4CCC[C@H]4C(=O)N[C@@H](CCCCN)C(=O)N[C@@H](C)C(=O)N[C@@H](CCC(=O)O)C(=O)N[C@@H](CC(=O)O)C(=O)N[C@@H](CCC(=O)O)C(=O)N[C@@H](Cc4ccc(OP(=O)(O)O)cc4)C(=O)N[C@H](C(=O)N[C@@H](CC(N)=O)C(=O)N[C@@H](CCC(=O)O)C(=O)N4CCC[C@H]4C(=O)N[C@@H](CC(C)C)C(=O)N[C@@H](Cc4ccc(O)cc4)C(=O)N[C@@H](CC(C)C)C(=O)N[C@@H](CC(=O)O)C(=O)O)C(C)C)cc3C(=O)[O-])c3ccc(=[N+](CC)CC)cc-3oc2c1 [ErbB4 1202 (18-mer)] (HELM PEPTIDE1{[CCN(CC)c1ccc2c(-c3ccc(C(=O)[*:2])cc3C(=O)[O-])c3ccc(=[N+](CC)CC)cc-3oc2c1].N.G.P.P.K.A.E.D.E.[O=C([C@H](Cc1ccc(OP(=O)(O)O)cc1)N[*:1])[*:2]].V.N.E.P.L.Y.L.D}$$$$V2.0)
- Kd ([2]; protein PLCG1-C, PM assay replicate # 39307, array fabrication # 39286): 1260 nM
- Kd [4, 6]: 11920 nM

Structure (SMILES): CC[C@H](C)[C@H](NC(=O)[C@H](CC(N)=O)NC(=O)[C@H](CC(N)=O)NC(=O)[C@H](CCCCN)NC(=O)[C@H](CC(C)C)NC(=O)[C@H](Cc1ccc(OP(=O)(O)O)cc1)NC(=O)[C@H](CCC(=O)O)NC(=O)[C@H](C)NC(=O)[C@H](CCCCN)NC(=O)CNC(=O)[C@H](CC(C)C)NC(=O)[C@@H](NC(=O)[C@H](CC(N)=O)NC(=O)[C@H](C)NC(=O)[C@@H](N)Cc1ccccc1)[C@@H](C)O)C(=O)N[C@@H](CC(C)C)C(=O)N[C@@H](CO)C(=O)N[C@@H](CC(=O)O)C(=O)O [ErbB4 pY1221 (18-mer)] (HELM PEPTIDE1{F.A.N.T.L.G.K.A.E.[O=C([C@H](Cc1ccc(OP(=O)(O)O)cc1)N[*:1])[*:2]].L.K.N.N.I.L.S.D}$$$$V2.0)
- Kd [1, 7]: 250 nM
- Kd [3, 7]: 420 nM
- Kd [4, 7]: 1190 nM
